# From PubChem BioAssay AID1996
# Settings: buffer; pH 7.4; 200.0 µM
row,Compound,solubility kinetic [µg/mL]
1,CN(CC(=O)Nc1ccc2c(c1)OCO2)CC(=O)Nc1ccc(F)c(F)c1F,> 59.3
2,Cc1ccc2c(c1)sc(C)[n+]2CCCS(=O)(=O)[O-],> 42.8
3,Cc1ccc(NC(=O)C2C3CCCCC32)cc1[N+](=O)[O-] (stereo unspecified),0.5
4,Cc1ccc(NC(=O)c2cccc3cccnc23)cc1,6.7
5,COc1ccc2c(c1)CC/C(=C\Nc1ccc3c(c1)OCO3)C2=O,11.2
6,[NH-]S(=O)(=O)c1ccccc1.[Na+],> 26.9
7,Cc1c(C(=O)NCc2ccco2)oc2c(F)cccc12,8.1
8,COc1ccc(C(=O)O)cc1S(=O)(=O)N1CCSCC1,> 47.6
9,Cl.O=C(O)C1=CCCNC1,> 24.5
10,Cc1ccc(C(=O)Nc2nc(C)c(C(=O)N(C)C)s2)o1,40.3
11,O=c1nc(SCc2ccc(Cl)cc2)nc(-c2ccccc2)[nH]1,4.5
12,Cc1cccc(NS(=O)(=O)c2ccc3[nH]c(=O)cc(C(=O)O)c3c2)c1,48.2
13,COc1ccc(C(=O)NCC(=O)OCC(=O)NC2CCCCCC2)cc1,> 54.4
14,NC(=O)c1[nH]cnc1N,> 18.9
15,Cc1cccc(-n2c(-c3ccc(Br)o3)n[nH]c2=S)c1,> 50.4
16,COc1ccc(O)c(/C=N/c2sc(C)c(C)c2C#N)c1,1
17,CC1CN(S(=O)(=O)c2cccc(C(=O)N3CCC(C(N)=O)CC3)c2)CC(C)O1 (stereo unspecified),> 61.4
18,O=C(/C=C/c1ccc(S(=O)(=O)N2CCOCC2)cc1)Nc1cc(F)ccc1F,5.5
19,O=C(COC(=O)c1c[nH]c2ccccc12)Nc1ccc(F)cc1,3.1
20,C/C(=C\c1ccc(F)cc1)C(=O)c1c(C)cc(C)[nH]c1=O,35.6
21,CCOC(=O)C1=C(C)NC(=O)CC1c1ccccc1OC (stereo unspecified),36.8
22,Cc1ccc2oc(C(=O)N(Cc3ccccc3)C3CCS(=O)(=O)C3)c(C)c2c1 (stereo unspecified),1.6

row,Compound,solubility kinetic [µg/mL]
1,O=C(COC(=O)c1ccc2c(c1)OCCO2)NCCc1ccccc1,11.7
2,O=C(CC1SCCNC1=O)Nc1cccc([N+](=O)[O-])c1 (stereo unspecified),> 44.3
3,CCOc1ccc(NC(=O)c2ccc(CN3CCc4ccccc4C3)cc2)cc1,< 0.4
4,Cc1ccccc1OCCNC(=O)c1ccco1,> 36.8
5,CCCCn1c(CCNC(=O)c2ccco2)nc2ccccc21,> 46.7
6,COc1ccc(NC(=O)Nc2ccc3c(c2)CCC3)cc1,< 0.3
7,COc1cc(C(=O)N2C(=O)CCC2=O)cc(OC)c1OC,35.4
8,COc1ccc(C(=O)NCc2ccc3[nH]c(C)cc3c2)cc1OC,23.5
9,COc1ccc(/C(N)=N/OC(=O)C2CCCCC2)cc1OC,35.2
10,CCC(=O)NCc1ccc(-c2nc3ncccc3o2)cc1,> 42.2
11,COc1cccc(NC(=O)CN2CCc3ccccc3C2)c1,42.7
12,COc1cccc(NC(=S)N(CCN(C)C)Cc2cccs2)c1,41.6
13,CCc1ccc(C(=O)COC(=O)C2=NN(c3ccccc3)C(=O)CC2)cc1,> 54.7
14,Cc1ccc(N=C(N)N=C(N)N)cc1,> 28.7
15,COC(=O)c1nn(-c2ccc(OC)cc2)ccc1=O,> 39
16,COc1ccc2nc(SCC(=O)Nc3ccccc3OC)[nH]c2c1,39.6
17,FC(F)(F)c1cccc(NC(=S)N2CCCC2)c1,> 41.1
18,COc1ccnc2c1c(=O)n(Cc1ccccc1Cl)c(=O)n2C,36
19,CC1CCCC(NC(=O)CSc2cccc[n+]2[O-])C1C (stereo unspecified),> 44.2
20,COc1ccc(N2CCN(Cc3nc4ccccc4[nH]3)CC2)cc1,> 48.4
21,Cc1cccc(NC(=S)NCCc2ccc3c(c2)OCCO3)c1C,27.7
22,COc1ccccc1CNC(=O)CCCNC(=O)c1ccc(Cl)cc1,20.6

row,Compound,solubility kinetic [µg/mL]
1,O=C(c1ccccc1)C(C(=O)N1CCCCC1)n1ccccc1=O (stereo unspecified),> 48.7
2,CC1CCC(NC(=O)c2cc3ccccc3cc2O)CC1 (stereo unspecified),4.3
3,O=C(NC1CCCC1)c1cc(-c2ccccc2)nc2ccccc12,1.4
4,CC(C)c1cc(C(C)C)c(S(=O)(=O)N2CCNCC2)c(C(C)C)c1,39.3
5,CC1(C)C[C@@H]2C[C@@](C)(CN2C(=O)c2ccccc2)C1,36.5
6,Cc1[nH]c(=O)[nH]c(=O)c1S(=O)(=O)Nc1cccc(C(F)(F)F)c1,> 52.4
7,c1ccc2[nH]c(-c3ccncc3)nc2c1,> 29.3
8,CC(=NCc1ccco1)c1c(O)n(-c2ccccc2C)c(=O)[nH]c1=O,> 50.9
9,Cc1ccc2cc(CCNC(=O)CCCc3ccccc3)c(=O)[nH]c2c1,2.2
10,CC(C)CN(C(=O)c1ccco1)c1nc2ccccc2s1,2.2
11,CN1C(=O)NC(c2ccc(Cl)cc2)C2=C1CC(C)(C)CC2=O (stereo unspecified),> 47.8
12,CC1CCC2(CC1)NC(=O)N(CC(=O)Nc1ccc3c(c1)OCO3)C2=O (stereo unspecified),15.6
13,CCOc1ccc(S(=O)(=O)NC(Cc2cnc[nH]2)C(=O)O)cc1 (stereo unspecified),25.8
14,COc1ccc2[nH]c(C(=O)Nc3ccccc3Cl)cc2c1,< 0.3
15,CCCCCC(=O)NC(=S)NC1C2CC3CC(C2)CC1C3 (stereo unspecified),28.3
16,COC(=O)c1sccc1NC(=O)Nc1ccc(F)cc1,28.4
17,O=C(COc1ccccc1)Nc1nc2c(s1)CCCC2,3.7
18,Cc1ccc(CN2CC(C(=O)Nc3ncccc3C)CC2=O)cc1 (stereo unspecified),> 48.5
19,CN(c1ccccc1)c1nccc(=O)[nH]1,> 30.2
20,CCCOc1ccc(C(C)=O)cc1Cc1c(O)[nH]c(=S)[nH]c1=O,29.4
21,COc1ccc(NC(=S)N2CCCC2)cc1OC,> 40
22,N#C/C(=C\Nc1ccc(Cl)cn1)S(=O)(=O)c1ccccc1,< 0.2

row,Compound,solubility kinetic [µg/mL]
1,N/C(=N\OC(=O)C12CC3CC(CC(C3)C1)C2)c1ccncc1,17
2,COC(=O)CNC(=O)COC(=O)/C=C/c1ccccc1[N+](=O)[O-],41.3
3,C=CCCOc1ccccc1C(N)=O,25.8
4,Cc1ccc(/C(O)=C2\C(=O)C(=O)N(CC(C)O)C2c2ccccn2)cc1 (stereo unspecified),> 52.9
5,S=c1[nH]c2cnccc2n1Cc1ccccc1,5.7
6,CC1CC(C)CN(CCOc2cccc3ccccc23)C1 (stereo unspecified),34.1
7,O=C(NCc1ccc2c(c1)OCO2)Nc1ccc(Cl)cc1,0.8
8,COC(=O)C(NC(C)=O)(Nc1ccc(C)cn1)C(F)(F)F (stereo unspecified),> 45.8
9,CC(C[N+](C)(C)C)OC(N)=O.[Cl-] (stereo unspecified),> 29.5
10,O=C(NCCN1CCOCC1)c1c(Cl)cccc1Cl,44.9
11,CCOCCCNC(c1ccccc1)c1ccncc1 (stereo unspecified),38
12,CSc1ccc(/C=C/C(=O)N2CCCN(C)CC2)cc1.Cl,44.1
13,O=C(NCCNc1ccc([N+](=O)[O-])cc1)c1ccccc1F,3.8
14,CCCc1nc2c(=O)n(C)c(=O)nc-2n(C)n1,> 35.3
15,CCCCOc1ccc(CSCCN)cc1Cl.Cl,> 46.5
16,NS(=O)(=O)c1ccc(CCNC(=O)Cc2cccs2)cc1,31.8
17,O=c1[nH]c2ccccc2nc1Cc1ccc(Cl)cc1,0.9
18,CC(CCc1ccc(O)cc1)NC1c2ccccc2-c2ccccc21 (stereo unspecified),26.1
19,Cc1ccsc1CNS(=O)(=O)c1ccc(F)cc1,30
20,Cc1ncc([N+](=O)[O-])n1CCO,> 25.7
